These results are taken from US9340590B2 (priority 2011, dated 2016).

Common to all, as to assay: cell-based
One test has as its target hNav1.7 (Homo sapiens, UniProt Q15858). Format: cell-based. The note with it: IonWorks Quattro, read-out: IWQ Use Nav1.7. A general note: In patch-clamp work, channel activity is measured electrically.
The target of another test is hNav1.3 (Homo sapiens, UniProt Q9NY46). As to conditions: IonWorks Quattro, read-out: IWQ Use Nav1.3.
The next test concerns the target hNav1.5 (Homo sapiens, UniProt Q14524). As to conditions: IonWorks Quattro, read-out: IWQ Use Nav1.5.
Setting [1] is: clamped to −110 mV, depolarized to −10 mV, 5 min after compound, n=2.

Molecules are shown by their SMILES. Like-named read-outs stand apart in the source and are kept apart here. Positions of bridges follow the written chain, without caps; N, C: chain ends. Non-standard residues stand in square brackets, D forms with d. Residues, ends and D or L forms follow the SMILES beside them. 2Nal = N[C@@H](Cc1ccc2ccccc2c1)C(=O)O

hNav1.7, sequence (Q15858 whole entry, looked up): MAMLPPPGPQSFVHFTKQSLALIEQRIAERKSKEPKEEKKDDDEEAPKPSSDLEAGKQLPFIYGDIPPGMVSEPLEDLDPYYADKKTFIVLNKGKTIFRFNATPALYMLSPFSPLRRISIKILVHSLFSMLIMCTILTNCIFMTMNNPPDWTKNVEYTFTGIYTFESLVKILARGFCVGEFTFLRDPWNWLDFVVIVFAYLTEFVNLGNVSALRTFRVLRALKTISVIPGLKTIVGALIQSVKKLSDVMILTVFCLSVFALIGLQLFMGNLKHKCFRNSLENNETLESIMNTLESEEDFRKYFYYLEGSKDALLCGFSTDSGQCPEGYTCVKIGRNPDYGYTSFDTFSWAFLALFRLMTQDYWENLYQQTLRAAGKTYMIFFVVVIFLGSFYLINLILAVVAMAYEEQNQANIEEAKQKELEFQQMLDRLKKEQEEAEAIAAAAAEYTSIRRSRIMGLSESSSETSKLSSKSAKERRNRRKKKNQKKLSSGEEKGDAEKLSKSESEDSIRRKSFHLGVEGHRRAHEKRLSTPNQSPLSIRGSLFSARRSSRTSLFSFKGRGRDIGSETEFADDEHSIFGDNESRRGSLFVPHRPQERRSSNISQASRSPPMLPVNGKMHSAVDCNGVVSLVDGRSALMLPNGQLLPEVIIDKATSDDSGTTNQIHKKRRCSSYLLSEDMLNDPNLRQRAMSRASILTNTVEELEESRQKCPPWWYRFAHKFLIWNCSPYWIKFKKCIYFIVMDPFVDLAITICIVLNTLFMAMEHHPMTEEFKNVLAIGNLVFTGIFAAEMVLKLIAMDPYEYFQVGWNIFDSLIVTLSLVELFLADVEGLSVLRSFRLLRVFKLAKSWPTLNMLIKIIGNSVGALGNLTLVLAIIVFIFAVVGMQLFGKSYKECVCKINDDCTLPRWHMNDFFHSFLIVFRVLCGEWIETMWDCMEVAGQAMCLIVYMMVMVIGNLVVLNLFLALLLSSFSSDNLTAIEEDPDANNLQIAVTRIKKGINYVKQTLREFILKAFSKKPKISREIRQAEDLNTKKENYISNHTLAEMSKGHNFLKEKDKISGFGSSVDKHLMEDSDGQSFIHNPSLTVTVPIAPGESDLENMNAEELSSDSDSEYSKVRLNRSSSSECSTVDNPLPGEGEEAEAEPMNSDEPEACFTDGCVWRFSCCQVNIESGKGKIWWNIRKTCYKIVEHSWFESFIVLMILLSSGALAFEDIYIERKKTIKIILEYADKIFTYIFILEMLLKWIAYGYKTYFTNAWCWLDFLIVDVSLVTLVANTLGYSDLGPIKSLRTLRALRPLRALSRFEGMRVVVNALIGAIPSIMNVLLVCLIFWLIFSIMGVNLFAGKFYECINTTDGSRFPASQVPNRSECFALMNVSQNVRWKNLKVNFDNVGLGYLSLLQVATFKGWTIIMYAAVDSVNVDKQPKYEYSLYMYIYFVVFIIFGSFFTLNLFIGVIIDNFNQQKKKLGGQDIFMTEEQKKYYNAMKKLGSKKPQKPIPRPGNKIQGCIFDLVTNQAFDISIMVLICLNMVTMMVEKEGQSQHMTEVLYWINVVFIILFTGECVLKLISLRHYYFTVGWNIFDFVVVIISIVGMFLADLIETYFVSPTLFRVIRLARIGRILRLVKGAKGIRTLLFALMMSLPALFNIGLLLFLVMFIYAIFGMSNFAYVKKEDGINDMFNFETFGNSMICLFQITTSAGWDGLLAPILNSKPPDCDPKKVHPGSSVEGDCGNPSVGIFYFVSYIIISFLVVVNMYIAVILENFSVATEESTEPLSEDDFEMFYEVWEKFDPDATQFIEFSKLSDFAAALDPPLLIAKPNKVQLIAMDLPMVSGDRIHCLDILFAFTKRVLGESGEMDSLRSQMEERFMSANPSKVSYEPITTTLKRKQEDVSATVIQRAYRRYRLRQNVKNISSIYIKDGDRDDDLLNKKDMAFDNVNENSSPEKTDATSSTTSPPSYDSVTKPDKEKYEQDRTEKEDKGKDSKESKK
hNav1.3, sequence (Q9NY46 whole entry, looked up): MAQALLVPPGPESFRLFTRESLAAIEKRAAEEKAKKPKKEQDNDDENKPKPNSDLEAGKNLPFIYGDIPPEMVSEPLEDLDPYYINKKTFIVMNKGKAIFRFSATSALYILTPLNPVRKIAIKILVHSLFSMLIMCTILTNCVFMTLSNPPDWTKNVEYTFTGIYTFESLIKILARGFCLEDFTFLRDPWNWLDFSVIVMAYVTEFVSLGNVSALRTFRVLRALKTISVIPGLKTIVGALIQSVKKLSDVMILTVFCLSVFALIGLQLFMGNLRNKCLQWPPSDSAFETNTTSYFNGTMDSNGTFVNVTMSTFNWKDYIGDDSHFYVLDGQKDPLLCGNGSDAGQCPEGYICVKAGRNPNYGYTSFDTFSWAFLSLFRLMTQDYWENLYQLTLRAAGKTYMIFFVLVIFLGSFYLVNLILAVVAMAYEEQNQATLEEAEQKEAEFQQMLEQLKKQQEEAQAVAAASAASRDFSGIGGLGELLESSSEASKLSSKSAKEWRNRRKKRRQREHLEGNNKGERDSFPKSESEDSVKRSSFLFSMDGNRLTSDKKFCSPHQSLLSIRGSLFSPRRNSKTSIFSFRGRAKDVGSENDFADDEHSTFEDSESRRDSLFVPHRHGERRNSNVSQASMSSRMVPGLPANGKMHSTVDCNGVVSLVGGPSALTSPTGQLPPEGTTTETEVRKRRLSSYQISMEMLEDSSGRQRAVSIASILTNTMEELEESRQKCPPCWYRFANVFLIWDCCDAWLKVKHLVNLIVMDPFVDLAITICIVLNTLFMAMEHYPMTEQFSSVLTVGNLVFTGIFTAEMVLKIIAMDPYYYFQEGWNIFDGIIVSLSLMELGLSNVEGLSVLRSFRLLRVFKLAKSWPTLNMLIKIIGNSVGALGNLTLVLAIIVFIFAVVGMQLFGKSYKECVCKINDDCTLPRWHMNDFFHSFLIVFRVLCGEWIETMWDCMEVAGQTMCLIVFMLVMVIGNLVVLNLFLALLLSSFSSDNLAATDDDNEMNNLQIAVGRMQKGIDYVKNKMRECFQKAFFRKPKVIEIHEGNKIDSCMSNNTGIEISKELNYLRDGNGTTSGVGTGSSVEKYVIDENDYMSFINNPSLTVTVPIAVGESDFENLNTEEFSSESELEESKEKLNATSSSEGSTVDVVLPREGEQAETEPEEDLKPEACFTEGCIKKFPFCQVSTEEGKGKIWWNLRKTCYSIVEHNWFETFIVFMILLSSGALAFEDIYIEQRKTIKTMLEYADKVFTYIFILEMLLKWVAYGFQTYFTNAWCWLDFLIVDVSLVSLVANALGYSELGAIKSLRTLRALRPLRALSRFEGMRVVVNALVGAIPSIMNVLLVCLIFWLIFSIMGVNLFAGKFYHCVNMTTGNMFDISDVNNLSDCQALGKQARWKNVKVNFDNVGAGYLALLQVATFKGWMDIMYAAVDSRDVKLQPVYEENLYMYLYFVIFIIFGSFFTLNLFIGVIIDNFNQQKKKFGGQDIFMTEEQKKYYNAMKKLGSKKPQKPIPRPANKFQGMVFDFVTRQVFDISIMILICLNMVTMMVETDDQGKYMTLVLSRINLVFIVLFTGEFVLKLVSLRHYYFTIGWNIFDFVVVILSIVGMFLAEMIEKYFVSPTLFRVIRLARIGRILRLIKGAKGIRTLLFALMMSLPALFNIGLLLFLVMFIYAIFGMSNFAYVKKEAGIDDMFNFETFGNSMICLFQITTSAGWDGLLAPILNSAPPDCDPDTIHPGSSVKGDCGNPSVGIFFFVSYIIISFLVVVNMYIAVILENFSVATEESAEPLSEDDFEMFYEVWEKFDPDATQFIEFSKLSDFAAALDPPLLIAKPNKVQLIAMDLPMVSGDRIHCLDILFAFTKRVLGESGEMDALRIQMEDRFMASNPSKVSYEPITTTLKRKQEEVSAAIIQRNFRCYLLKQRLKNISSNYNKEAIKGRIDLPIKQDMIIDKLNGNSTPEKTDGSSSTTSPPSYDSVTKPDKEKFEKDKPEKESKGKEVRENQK

For `CC[C@H](C)[C@@H]1NC(=O)[C@@H]2CSSC[C@@H]3NC(=O)[C@H](C(C)C)NC(=O)[C@H](CC(C)C)NC(=O)[C@H](CC(N)=O)NC(=O)[C@@H]4CCCN4C(=O)[C@H](CCCNC(=N)N)NC(=O)[C@H](CSSC[C@H](NC(=O)[C@@H](N)CC(=O)O)C(=O)N[C@@H](CC(C)C)C(=O)NCC(=O)N[C@@H](C)C(=O)N[C@@H](CC(C)C)C(=O)N[C@@H](CCCNC(=N)N)C(=O)N[C@@H](CCCCN)C(=O)N2)NC(=O)[C@H](CSSC[C@@H](C(=O)N[C@@H](CCCCN)C(=O)N[C@@H](Cc2ccc(O)cc2)C(=O)N[C@H](C(=O)N[C@@H](Cc2ccccc2)C(=O)O)C(C)C)NC(=O)[C@H](Cc2c[nH]c4ccccc24)NC(=O)[C@H](CCCNC(=N)N)NC(=O)[C@H](Cc2c[nH]cn2)NC(=O)[C@H]([C@@H](C)O)NC(=O)[C@H](CCCNC(=N)N)NC(=O)[C@H](CO)NC3=O)NC(=O)[C@H](CCCCN)NC(=O)[C@H](CC(=O)O)NC(=O)[C@H](CC(N)=O)NC(=O)[C@H](CC(=O)O)NC(=O)[C@@H]2CCCN2C1=O` [compound 853] (H-DCLGALRKCIPDNDKCCRPNLVCSRTHRWCKYVF-OH; disulfide 2-17, 9-23, 16-30), the IC50 at hNav1.7 (use-dependent block, hNav1.7) is over 5 µM; on hNav1.3 (use-dependent block, hNav1.3) it was over 5 µM; on hNav1.5 (use-dependent block, hNav1.5) it was over 5 µM.
Consider `CC[C@H](C)[C@@H]1NC(=O)[C@@H]2CSSC[C@@H]3NC(=O)[C@H](C(C)C)NC(=O)[C@H](CC(C)C)NC(=O)[C@H](CC(N)=O)NC(=O)[C@@H]4CCCN4C(=O)[C@H](CCCNC(=N)N)NC(=O)[C@H](CSSC[C@H](NC(=O)[C@@H](N)CC(=O)O)C(=O)N[C@@H](CCC(N)=O)C(=O)NCC(=O)N[C@@H](Cc4ccccc4)C(=O)N[C@@H](CCSC)C(=O)N[C@@H](CCCNC(=N)N)C(=O)N[C@@H](CCCCN)C(=O)N2)NC(=O)[C@H](CSSC[C@@H](C(=O)N[C@@H](CCCCN)C(=O)N[C@@H](Cc2ccc(O)cc2)C(=O)N[C@H](C(=O)N[C@@H](Cc2ccccc2)C(N)=O)C(C)C)NC(=O)[C@H](Cc2c[nH]c4ccccc24)NC(=O)[C@H](CCCCN)NC(=O)[C@H](Cc2c[nH]cn2)NC(=O)[C@H]([C@@H](C)O)NC(=O)[C@H](CCCNC(=N)N)NC(=O)[C@H](CO)NC3=O)NC(=O)[C@H](CCCCN)NC(=O)[C@H](CC(=O)O)NC(=O)[C@H](CC(N)=O)NC(=O)[C@H](CC(=O)O)NC(=O)[C@@H]2CCCN2C1=O` [SEQ ID NO: 98] (H-DCQGFMRKCIPDNDKCCRPNLVCSRTHKWCKYVF-NH2; disulfide 2-17, 9-23, 16-30), for which the IC50 on hNav1.7 (setting [1]) turned out to be 0.25 µM; at hNav1.3 (setting [1]) it was 0.24 µM; at hNav1.5 (setting [1]), 16.4 µM.
Take `CC[C@H](C)[C@@H]1NC(=O)[C@@H]2CSSC[C@@H]3NC(=O)[C@H](C(C)C)NC(=O)[C@H](CC(C)C)NC(=O)[C@H](CC(N)=O)NC(=O)[C@@H]4CCCN4C(=O)[C@H](CCCNC(=N)N)NC(=O)[C@H](CSSC[C@H](NC(=O)[C@@H](N)CC(=O)O)C(=O)N[C@@H](CC(C)C)C(=O)NCC(=O)N[C@@H](Cc4ccccc4)C(=O)N[C@@H](CCSC)C(=O)N[C@@H](CCCNC(=N)N)C(=O)N[C@@H](CCCCN)C(=O)N2)NC(=O)[C@H](CSSC[C@@H](C(=O)N[C@@H](CCCCN)C(=O)N[C@@H](Cc2ccc(O)cc2)C(=O)N[C@H](C(=O)N[C@@H](Cc2ccc4ccccc4c2)C(N)=O)C(C)C)NC(=O)[C@H](Cc2c[nH]c4ccccc24)NC(=O)[C@H](CCCCN)NC(=O)[C@H](Cc2c[nH]cn2)NC(=O)[C@H]([C@@H](C)O)NC(=O)[C@H](CCCNC(=N)N)NC(=O)[C@H](CO)NC3=O)NC(=O)[C@H](CCCCN)NC(=O)[C@H](CC(=O)O)NC(=O)[C@H](CC(N)=O)NC(=O)[C@H](CC(=O)O)NC(=O)[C@@H]2CCCN2C1=O` [compound 130] (H-DCLGFMRKCIPDNDKCCRPNLVCSRTHKWCKYV[2Nal]-NH2; disulfide 2-17, 9-23, 16-30): the IC50 stood at 0.04 µM on hNav1.7 (use-dependent, […]); 0.02 µM at hNav1.3 (use-dependent, […]); 3.59 µM at hNav1.5 (use-dependent, […]).
With `CC[C@H](C)[C@@H]1NC(=O)[C@@H]2CSSC[C@@H]3NC(=O)[C@H](C(C)C)NC(=O)[C@H](CC(C)C)NC(=O)[C@H](CC(N)=O)NC(=O)[C@@H]4CCCN4C(=O)[C@H](CCCNC(=N)N)NC(=O)[C@H](CSSC[C@H](NC(=O)[C@H](CC(=O)O)NC(=O)[C@H](CO)NC(=O)CN)C(=O)N[C@@H](CC(C)C)C(=O)NCC(=O)N[C@@H](C)C(=O)N[C@@H](Cc4ccccc4)C(=O)N[C@@H](CCCNC(=N)N)C(=O)N[C@@H](CCCCN)C(=O)N2)NC(=O)[C@H](CSSC[C@@H](C(=O)N[C@@H](CCCCN)C(=O)N[C@@H](Cc2ccc(O)cc2)C(=O)N[C@H](C(=O)N[C@@H](Cc2ccccc2)C(=O)N[C@@H](Cc2c[nH]c4ccccc24)C(=O)O)C(C)C)NC(=O)[C@H](Cc2c[nH]c4ccccc24)NC(=O)[C@H](CCCNC(=N)N)NC(=O)[C@H](Cc2c[nH]cn2)NC(=O)[C@H]([C@@H](C)O)NC(=O)[C@H](CCCNC(=N)N)NC(=O)[C@H](CO)NC3=O)NC(=O)[C@H](CCCCN)NC(=O)[C@H](CC(=O)O)NC(=O)[C@H](CC(N)=O)NC(=O)[C@H](CC(=O)O)NC(=O)[C@@H]2CCCN2C1=O` [compound 815] (H-GSDCLGAFRKCIPDNDKCCRPNLVCSRTHRWCKYVFW-OH; disulfide 4-19, 11-25, 18-32), the IC50 on hNav1.7 (use-dependent block, hNav1.7) is over 5 µM; at hNav1.3 (use-dependent block, hNav1.3), over 5 µM; at hNav1.5 (use-dependent block, hNav1.5), over 5 µM.
With `CC[C@H](C)[C@@H]1NC(=O)[C@@H]2CSSC[C@@H]3NC(=O)[C@H](C(C)C)NC(=O)[C@H](CC(C)C)NC(=O)[C@H](CC(N)=O)NC(=O)[C@@H]4CCCN4C(=O)[C@H](CCCNC(=N)N)NC(=O)[C@H](CSSC[C@H](NC(=O)[C@@H](N)CC(=O)O)C(=O)N[C@@H](CC(C)C)C(=O)NCC(=O)N[C@@H](c4ccccc4)C(=O)N[C@@H](CCSC)C(=O)N[C@@H](CCCNC(=N)N)C(=O)N[C@@H](CCCCN)C(=O)N2)NC(=O)[C@H](CSSC[C@@H](C(=O)N[C@@H](CCCCN)C(=O)N[C@@H](Cc2ccc(O)cc2)C(=O)N[C@H](C(=O)N[C@@H](Cc2ccccc2)C(N)=O)C(C)C)NC(=O)[C@H](Cc2c[nH]c4ccccc24)NC(=O)[C@H](CCCCN)NC(=O)[C@H](Cc2c[nH]cn2)NC(=O)[C@H]([C@@H](C)O)NC(=O)[C@H](CCCNC(=N)N)NC(=O)[C@H](CO)NC3=O)NC(=O)[C@H](CCCCN)NC(=O)[C@H](CC(=O)O)NC(=O)[C@H](CC(N)=O)NC(=O)[C@H](CC(=O)O)NC(=O)[C@@H]2CCCN2C1=O` [SEQ ID NO: 275], the IC50 on hNav1.7 (setting [1]) is 0.09 µM; at hNav1.3 (setting [1]) it was 0.17 µM; at hNav1.5 (setting [1]), over 5 µM.
